Measured values reported in US10519169B2, “3-(1H-pyrrolo[2,3-C]pyridin-2-yl)-1 H-pyrazolo[4,3-B]pyridines and therapeutic uses thereof” (Samumed, LLC, priority 2015, dated 2019).

Key:
[1] = tested on: primary human fibroblasts derived from IPF patients (LL29 cells) treated with TGF-β1; experiment: Inhibition of fibrotic process, αSMA staining in TGF-β1 treated LL29 fibroblasts; type: cell-based; conditions: Fibroblast, 96 h, TGF-β1 20 ng/mL, 4 days, % cells positive for αSMA
Outline: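 Human IPF-derived LL29 lung fibroblasts in 1% FBS, TGF-β1 20 ng/mL, 11-point compound series, 0.1% DMSO, 4 days at 37 °C. SYTOX-positive cells excluded; % αSMA-positive cells imaged, normalized to TGF-β1/DMSO wells, EC50 by nonlinear fit. Above 10 μM, % inhibition at 10 μM given.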

[2] = tested on: IL-6; experiment: IL-6 inhibition in LPS-stimulated THP-1 cells (HTRF); type: cell-based; conditions: Homo sapiens; for EC50: LPS 500 ng/mL, 22 hours, IL6 HTRF
Outline: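 THP-1 monocytes, serum-reduced (1% FBS) for 24 h, were preincubated 2 h with compound at 0.1% DMSO (10-point, 1:3 dilutions from 10 μM), then stimulated with 500 ng/mL LPS for 22 h at 37 °C. IL-6 was quantified by HTRF (665/620 nm ratio), normalized to DMSO. EC50 came from 4-parameter regression, or % inhibition at 10 μM.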

Structure (SMILES) | EC50 [2] [nM] | EC50 [1] [nM] | inhibition at 10 µM ([2]; given for EC50 >10 μM, LPS, IL6, at 10 M [sic], read-out: percent inhibition at 10 M) [%]
Cc1ccncc1-c1ccc2[nH]nc(-c3cc4c(-c5ccc(F)cc5)cncc4[nH]3)c2n1 [Compound 33, 3-(4-(4-Fluorophenyl)-1H-pyrrolo[2,3-c]pyridin-2-yl)-5-(4-methylpyridin-3-yl)-1H-pyrazolo[4,3-b]pyridine] | > 10000 | 1760 | 37.8
Fc1ccccc1-c1cncc2[nH]c(-c3n[nH]c4ccc(-c5cn[nH]c5)nc34)cc12 [Compound 539, 3-(4-(2-Fluorophenyl)-1H-pyrrolo[2,3-c]pyridin-2-yl)-5-(1H-pyrazol-4-yl)-1H-pyrazolo[4,3-b]pyridine] | 160 | 2310 | 
Cc1ccncc1-c1ccc2[nH]nc(-c3cc4c(-c5cc(F)cc(CNS(C)(=O)=O)c5)cncc4[nH]3)c2n1 [Compound 481, N-(3-Fluoro-5-(2-(5-(4-methylpyridin-3-yl)-1H-pyrazolo[4,3-b]pyridin-3-yl)-1H-pyrrolo[2,3-c]pyridin-4-yl)benzyl)methanesulfonamide] | 115 | 262 | 

Further lines, with some results ahead:

EC50 [2] [nM] | Structure (SMILES) | EC50 [1] [nM] | inhibition at 10 µM ([2]; given for EC50 >10 μM, LPS, IL6, at 10 M [sic], read-out: percent inhibition at 10 M) [%]
213 | CS(=O)(=O)NCc1cc(F)cc(-c2cncc3[nH]c(-c4n[nH]c5ccc(-c6cncc(CN7CCCCC7)c6)nc45)cc23)c1 [Compound 491, N-(3-Fluoro-5-(2-(5-(5-(piperidin-1-ylmethyl)pyridin-3-yl)-1H-pyrazolo[4,3-b]pyridin-3-yl)-1H-pyrrolo[2,3-c]pyridin-4-yl)benzyl)methanesulfonamide] | 1220 | 
380 | FC1(F)CCN(Cc2cncc(-c3ccc4[nH]nc(-c5cc6c(-c7cccnc7)cncc6[nH]5)c4n3)c2)C1 [Compound 110, 5-(5-((3,3-Difluoropyrrolidin-1-yl)methyl)pyridin-3-yl)-3-(4-(pyridin-3-yl)-1H-pyrrolo[2,3-c]pyridin-2-yl)-1H-pyrazolo[4,3-b]pyridine] | 329 | 
